According to ChEMBL document CHEMBL3885881, “DrugMatrix”:

Organism: Rattus norvegicus
Assay: DrugMatrix - Regimen: Daily Repeat
Assay type: toxicity, organism-based, Sprague-Dawley
Design: regimen Daily Repeat, gender Male, age 6-8 weeks
Settings: in vivo, iv, vehicle 100 % SALINE; for ABSOLUTE BASOPHIL / ABSOLUTE EOSINOPHIL / ABSOLUTE LYMPHOCYTE / ABSOLUTE MONOCYTE / ABSOLUTE SEGMENTED NEUTROPHIL / BASOPHIL / EOSINOPHIL / ERYTHROCYTE COUNT / HEMATOCRIT / HEMOGLOBIN / LEUKOCYTE COUNT / LYMPHOCYTE / MEAN CORPUSCULAR HEMOGLOBIN / MEAN CORPUSCULAR HEMOGLOBIN CONCENTRATION / MEAN CORPUSCULAR VOLUME / MONOCYTE / NEUTROPHIL / NUCLEATED RED BLOOD CELLS / PLATELET COUNT: tissue Blood; for ALANINE AMINOTRANSFERASE / ALBUMIN / ALKALINE PHOSPHATASE / ASPARTATE AMINOTRANSFERASE / BLOOD UREA NITROGEN / CARBON DIOXIDE / CHLORIDE / CHOLESTEROL / CREATINE PHOSPHOKINASE / CREATININE / GLUCOSE / LACTATE DEHYDROGENASE / LIPASE / PHOSPHORUS / POTASSIUM / SODIUM / TOTAL BILIRUBIN / TOTAL PROTEIN / URIC ACID: tissue Plasma
[1] = 200 mg/kg, 72 h, dose level Low, time 3 day
[2] = 200 mg/kg, 120 h, dose level Low, time 5 day
[3] = 671 mg/kg, 72 h, dose level High, time 3 day
[4] = 671 mg/kg, 120 h, dose level High, time 5 day

With CC1(C)[C@H](C(=O)O)N2C(=O)C[C@H]2S1(=O)=O [SULBACTAM] the “ABSOLUTE BASOPHIL” value [1] was 0 CELLS/uL, the “ABSOLUTE EOSINOPHIL” value [1] was 43 CELLS/uL and the “ABSOLUTE LYMPHOCYTE” value [1] was 14561.67 CELLS/uL. For the same compound, the “ABSOLUTE MONOCYTE” value [1] was 271 CELLS/uL, the “ABSOLUTE SEGMENTED NEUTROPHIL” value [1] was 824.33 CELLS/uL and the BASOPHIL [1] was 0%. For the same compound, the EOSINOPHIL [1] was 0.33%, the “ERYTHROCYTE COUNT” value [1] was 5.6 x10E6/uL and the HEMATOCRIT [1] was 36.53%. The HEMOGLOBIN [1] was 13.5 G/DL, the “LEUKOCYTE COUNT” value [1] was 15.7 x10E3/uL and the LYMPHOCYTE [1] was 93%. The “MEAN CORPUSCULAR HEMOGLOBIN” value [1] was 24.1 pg, the “MEAN CORPUSCULAR HEMOGLOBIN CONCENTRATION” value [1] was 36.97 G/DL and the “MEAN CORPUSCULAR VOLUME” value [1] was 65.23 fL. The MONOCYTE [1] was 1.67%, the NEUTROPHIL [1] was 5% and the “NUCLEATED RED BLOOD CELLS” value [1] was 0 /100WBC. For the same compound, the “PLATELET COUNT” value [1] was 1408.33 x10E3/uL, the “ALANINE AMINOTRANSFERASE” value [1] was 53.67 u/L and the ALBUMIN [1] was 4.27 G/DL. The “ALKALINE PHOSPHATASE” value [1] was 448.33 u/L, the “ASPARTATE AMINOTRANSFERASE” value [1] was 100 u/L and the “BLOOD UREA NITROGEN” value [1] was 15.67 mg/dL. The “CARBON DIOXIDE” value [1] was 25 mmol/L, the CHLORIDE [1] was 104.33 MEQ/L and the CHOLESTEROL [1] was 75.67 mg/dL. The “CREATINE PHOSPHOKINASE” value [1] was 386 u/L, the CREATININE [1] was 0.21 mg/dL and the GLUCOSE [1] was 148.33 mg/dL. For the same compound, the “LACTATE DEHYDROGENASE” value [1] was 566.33 u/L, the LIPASE [1] was 9 u/L and the PHOSPHORUS [1] was 14.37 mg/dL. The POTASSIUM [1] was 6.91 MEQ/L, the SODIUM [1] was 147.5 MEQ/L and the “TOTAL BILIRUBIN” value [1] was 0.2 mg/dL. For the same compound, the “TOTAL PROTEIN” value [1] was 5.87 G/DL, the “URIC ACID” value [1] was 2.33 mg/dL and the “ABSOLUTE BASOPHIL” value [2] was 0 CELLS/uL. For the same compound, the “ABSOLUTE EOSINOPHIL” value [2] was 0 CELLS/uL, the “ABSOLUTE LYMPHOCYTE” value [2] was 14657 CELLS/uL and the “ABSOLUTE MONOCYTE” value [2] was 318 CELLS/uL. The “ABSOLUTE SEGMENTED NEUTROPHIL” value [2] was 925 CELLS/uL, the BASOPHIL [2] was 0% and the EOSINOPHIL [2] was 0%. The “ERYTHROCYTE COUNT” value [2] was 5.84 x10E6/uL, the HEMATOCRIT [2] was 37.7% and the HEMOGLOBIN [2] was 14.03 G/DL. For the same compound, the “LEUKOCYTE COUNT” value [2] was 15.9 x10E3/uL, the LYMPHOCYTE [2] was 92% and the “MEAN CORPUSCULAR HEMOGLOBIN” value [2] was 24.03 pg. The “MEAN CORPUSCULAR HEMOGLOBIN CONCENTRATION” value [2] was 37.23 G/DL, the “MEAN CORPUSCULAR VOLUME” value [2] was 64.47 fL and the MONOCYTE [2] was 2%. The NEUTROPHIL [2] was 6%, the “NUCLEATED RED BLOOD CELLS” value [2] was 0 /100WBC and the “PLATELET COUNT” value [2] was 1395.33 x10E3/uL. For the same compound, the “ALANINE AMINOTRANSFERASE” value [2] was 49.67 u/L, the ALBUMIN [2] was 4.37 G/DL and the “ALKALINE PHOSPHATASE” value [2] was 374.33 u/L. The “ASPARTATE AMINOTRANSFERASE” value [2] was 126 u/L, the “BLOOD UREA NITROGEN” value [2] was 17 mg/dL and the “CARBON DIOXIDE” value [2] was 23 mmol/L. The CHLORIDE [2] was 109 MEQ/L, the CHOLESTEROL [2] was 81.67 mg/dL and the “CREATINE PHOSPHOKINASE” value [2] was 1350 u/L. The CREATININE [2] was 0.18 mg/dL, the GLUCOSE [2] was 184.33 mg/dL and the “LACTATE DEHYDROGENASE” value [2] was 397.67 u/L. The LIPASE [2] was 9.67 u/L, the PHOSPHORUS [2] was 15.07 mg/dL and the POTASSIUM [2] was 6.82 MEQ/L. The SODIUM [2] was 147.1 MEQ/L, the “TOTAL BILIRUBIN” value [2] was 0.17 mg/dL and the “TOTAL PROTEIN” value [2] was 6.2 G/DL. For the same compound, the “URIC ACID” value [2] was 2.3 mg/dL, the “ABSOLUTE BASOPHIL” value [3] was 0 CELLS/uL and the “ABSOLUTE EOSINOPHIL” value [3] was 155 CELLS/uL. The “ABSOLUTE LYMPHOCYTE” value [3] was 10321.67 CELLS/uL, the “ABSOLUTE MONOCYTE” value [3] was 230 CELLS/uL and the “ABSOLUTE SEGMENTED NEUTROPHIL” value [3] was 793.33 CELLS/uL. The BASOPHIL [3] was 0%, the EOSINOPHIL [3] was 1% and the “ERYTHROCYTE COUNT” value [3] was 5.18 x10E6/uL. The HEMATOCRIT [3] was 33.43%, the HEMOGLOBIN [3] was 12.83 G/DL and the “LEUKOCYTE COUNT” value [3] was 11.5 x10E3/uL. The LYMPHOCYTE [3] was 90.33%, the “MEAN CORPUSCULAR HEMOGLOBIN” value [3] was 24.77 pg and the “MEAN CORPUSCULAR HEMOGLOBIN CONCENTRATION” value [3] was 38.4 G/DL. The “MEAN CORPUSCULAR VOLUME” value [3] was 64.63 fL, the MONOCYTE [3] was 2% and the NEUTROPHIL [3] was 6.67%. The “NUCLEATED RED BLOOD CELLS” value [3] was 0 /100WBC, the “PLATELET COUNT” value [3] was 1400 x10E3/uL and the “ALANINE AMINOTRANSFERASE” value [3] was 58 u/L. The ALBUMIN [3] was 4.2 G/DL, the “ALKALINE PHOSPHATASE” value [3] was 390 u/L and the “ASPARTATE AMINOTRANSFERASE” value [3] was 79.67 u/L. The “BLOOD UREA NITROGEN” value [3] was 16.67 mg/dL, the “CARBON DIOXIDE” value [3] was 23.67 mmol/L and the CHLORIDE [3] was 105 MEQ/L. The CHOLESTEROL [3] was 91.67 mg/dL, the “CREATINE PHOSPHOKINASE” value [3] was 323 u/L and the CREATININE [3] was 0.17 mg/dL. The GLUCOSE [3] was 164.67 mg/dL, the “LACTATE DEHYDROGENASE” value [3] was 190.67 u/L and the LIPASE [3] was 9.67 u/L. It also gave a PHOSPHORUS [3] of 13.3 mg/dL, a POTASSIUM [3] of 6.52 MEQ/L and an SODIUM [3] of 144.27 MEQ/L. The “TOTAL BILIRUBIN” value [3] was 0.2 mg/dL, the “TOTAL PROTEIN” value [3] was 5.83 G/DL and the “URIC ACID” value [3] was 1.6 mg/dL. For the same compound, the “ABSOLUTE BASOPHIL” value [4] was 0 CELLS/uL, the “ABSOLUTE EOSINOPHIL” value [4] was 174 CELLS/uL and the “ABSOLUTE LYMPHOCYTE” value [4] was 13614.33 CELLS/uL. For the same compound, the “ABSOLUTE MONOCYTE” value [4] was 314 CELLS/uL, the “ABSOLUTE SEGMENTED NEUTROPHIL” value [4] was 1597.67 CELLS/uL and the BASOPHIL [4] was 0%. For the same compound, the EOSINOPHIL [4] was 1%, the “ERYTHROCYTE COUNT” value [4] was 5.71 x10E6/uL and the HEMATOCRIT [4] was 36.2%. The HEMOGLOBIN [4] was 13.7 G/DL, the “LEUKOCYTE COUNT” value [4] was 15.7 x10E3/uL and the LYMPHOCYTE [4] was 86.67%. The “MEAN CORPUSCULAR HEMOGLOBIN” value [4] was 24 pg, the “MEAN CORPUSCULAR HEMOGLOBIN CONCENTRATION” value [4] was 37.87 G/DL and the “MEAN CORPUSCULAR VOLUME” value [4] was 63.33 fL. For the same compound, the MONOCYTE [4] was 2%, the NEUTROPHIL [4] was 10.33% and the “NUCLEATED RED BLOOD CELLS” value [4] was 0 /100WBC. The “PLATELET COUNT” value [4] was 1356 x10E3/uL, the “ALANINE AMINOTRANSFERASE” value [4] was 44.33 u/L and the ALBUMIN [4] was 4.33 G/DL. The “ALKALINE PHOSPHATASE” value [4] was 277 u/L, the “ASPARTATE AMINOTRANSFERASE” value [4] was 78 u/L and the “BLOOD UREA NITROGEN” value [4] was 18.33 mg/dL. For the same compound, the “CARBON DIOXIDE” value [4] was 26.67 mmol/L, the CHLORIDE [4] was 108.33 MEQ/L and the CHOLESTEROL [4] was 75.67 mg/dL. The “CREATINE PHOSPHOKINASE” value [4] was 555.67 u/L, the CREATININE [4] was 0.17 mg/dL and the GLUCOSE [4] was 164.67 mg/dL. For the same compound, the “LACTATE DEHYDROGENASE” value [4] was 144 u/L, the LIPASE [4] was 9 u/L and the PHOSPHORUS [4] was 13.8 mg/dL. For the same compound, the POTASSIUM [4] was 6.54 MEQ/L, the SODIUM [4] was 148.8 MEQ/L and the “TOTAL BILIRUBIN” value [4] was 0.17 mg/dL. The “TOTAL PROTEIN” value [4] was 6.43 G/DL and the “URIC ACID” value [4] was 1.67 mg/dL.
